Measured values from ChEMBL document CHEMBL1126937, “Synthesis of new 11 beta-substituted spirolactone derivatives. Relationship with affinity for mineralocorticoid and glucocorticoid receptors” (J Med Chem, 1993).

biological target: T1, Mineralocorticoid receptor (Homo sapiens) (UniProt P08235); test: Displacement of [3H]aldosterone from mineralocorticoid receptor of rabbit kidney; settings: Oryctolagus cuniculus; target entry is the homologue from another species
T1 sequence (whole entry): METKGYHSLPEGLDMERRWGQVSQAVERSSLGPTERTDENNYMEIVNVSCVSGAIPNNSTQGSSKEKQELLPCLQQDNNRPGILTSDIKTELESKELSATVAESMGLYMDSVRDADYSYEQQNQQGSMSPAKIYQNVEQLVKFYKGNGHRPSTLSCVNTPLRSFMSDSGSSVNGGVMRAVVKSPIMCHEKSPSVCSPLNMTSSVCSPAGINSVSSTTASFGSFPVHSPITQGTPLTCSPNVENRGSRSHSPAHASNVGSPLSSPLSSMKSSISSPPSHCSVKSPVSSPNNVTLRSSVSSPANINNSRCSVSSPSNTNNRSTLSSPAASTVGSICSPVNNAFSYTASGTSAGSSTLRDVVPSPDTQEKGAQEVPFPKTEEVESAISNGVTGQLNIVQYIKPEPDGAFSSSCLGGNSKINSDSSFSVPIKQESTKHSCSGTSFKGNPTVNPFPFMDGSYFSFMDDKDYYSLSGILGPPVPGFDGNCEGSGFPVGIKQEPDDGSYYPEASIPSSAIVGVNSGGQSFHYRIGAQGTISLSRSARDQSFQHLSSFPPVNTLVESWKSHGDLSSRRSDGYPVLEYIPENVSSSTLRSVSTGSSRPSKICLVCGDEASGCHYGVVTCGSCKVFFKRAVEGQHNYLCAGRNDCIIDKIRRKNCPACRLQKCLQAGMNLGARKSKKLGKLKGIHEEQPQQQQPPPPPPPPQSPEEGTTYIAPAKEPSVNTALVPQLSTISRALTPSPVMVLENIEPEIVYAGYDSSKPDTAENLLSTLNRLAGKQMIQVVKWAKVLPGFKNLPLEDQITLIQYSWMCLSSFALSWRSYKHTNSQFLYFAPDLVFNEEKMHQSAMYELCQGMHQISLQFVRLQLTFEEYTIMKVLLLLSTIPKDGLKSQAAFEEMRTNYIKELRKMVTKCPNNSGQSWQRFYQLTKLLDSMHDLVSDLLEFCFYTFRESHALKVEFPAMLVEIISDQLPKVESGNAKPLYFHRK

Compound | RBA [%]
C[C@]12CCC3=C4CCC(=O)C=C4CCC3C1CC[C@@]21CCC(=O)O1 (some centres undefined) | 13
CC(C)(C)OCCC[C@H]1C[C@@]2(C)C(CC[C@@]23CCC(=O)O3)C2CCC3=CC(=O)CCC3=C21 (some centres undefined) | < 0.1
C=C[C@H]1C[C@@]2(C)C(CC[C@@]23CCC(=O)O3)C2CCC3=CC(=O)CCC3=C21 (some centres undefined) | 14
C/C=C1\C[C@@]2(C)C(CC[C@@]23CCC(=O)O3)C2CCC3=CC(=O)CCC3=C12 (some centres undefined) | 7
COCCC[C@H]1C[C@@]2(C)C(CC[C@@]23CCC(=O)O3)C2CCC3=CC(=O)CCC3=C21 (some centres undefined) | 0.5
C=C=C[C@H]1C[C@@]2(C)C(CC[C@@]23CCC(=O)O3)C2CCC3=CC(=O)CCC3=C21 (some centres undefined) | 110
C[C@H]1C[C@@]2(C)C(CC[C@@]23CCC(=O)O3)C2CCC3=CC(=O)CCC3=C21 (some centres undefined) | 6
C=C/C=C1\C[C@@]2(C)C(CC[C@@]23CCC(=O)O3)C2CCC3=CC(=O)CCC3=C12 (some centres undefined) | 2

Second part, the molecule after the results:

RBA [%] | Compound
4 | CC(=O)S[C@@H]1CC2=CC(=O)CC[C@]2(C)[C@H]2CC[C@@]3(C)[C@@H](CC[C@@]34CCC(=O)O4)[C@H]12
100 | C[C@]12CCC(=O)C=C1CC[C@@H]1[C@@H]2[C@@H](O)C[C@]2(C=O)[C@@H](C(=O)CO)CC[C@@H]12
20 | C[C@@H]1C[C@H]2[C@@H]3CCC4=CC(=O)C=C[C@]4(C)[C@@]3(F)[C@@H](O)C[C@]2(C)[C@@]1(O)C(=O)CO
< 0.1 | C[C@]12C[C@H](CCCO)C3=C4CCC(=O)C=C4CCC3C1CC[C@@]21CCC(=O)O1 (some centres undefined)
21 | CC(=O)S[C@@H]1CC2=CC(=O)C=C[C@]2(C)[C@H]2CC[C@@]3(C)[C@@H]([C@@H]4C[C@@H]4[C@@]34CCC(=O)O4)[C@H]12
1 | C[C@]12CCC(=O)C=C1C=C[C@@H]1[C@@H]2CC[C@@]2(C)[C@H]1CC[C@@]21CCC(=O)O1
